From publication PMC11024869, “The activity of antimicrobial peptoids against multidrug-resistant ocular pathogens” (Contact lens & anterior eye : the journal of the British …, 2024)
Where “and” joins values, the source holds several entries; their conditions need not be identical. Equal values may be shown once. Read-outs that look alike come from different tables or passages of the source. Non-standard residues stand in square brackets, D forms with d. Residues, ends and D or L forms follow the SMILES beside them. Nspe(4-Br) = C[C@H](NCC(=O)O)c1ccc(Br)cc1; Nspe = C[C@H](NCC(=O)O)c1ccccc1; NDecylGly = CCCCCCCCCCNCC(=O)O; Nlys = NCCCCNCC(=O)O

Columns and labels:
tested bacteria = assay: Geometric mean of MIC of the tested bacteria; type: cell-based; conditions: nth root of the multiplied MICs of the tested bacteria
Description: (§1) The geometric mean is the nth root of the multiplied numbers, where n is the total number of data values. A similar formula was used to calculate the selectivity ratio, but by using the concentration of peptoid that caused 10 % hemolysis.

P aeruginosa 216 = system: P aeruginosa 216
Protocol: (§2) Melimine was used as positive control as it is a cationic antimicrobial peptide that can be hydrolysed by proteases. The Expasy peptide cutter module (https://web.expasy.org/peptide_cutter/) was accessed to predict which proteases might digest melimine. The susceptibility of the antimicrobial compounds to digestion by two proteases expected to digest melimine, Proteinase K (120 unit mL^−1 in 20 mM Tris HCl, pH 7.4; New England Bio Labs, Australia) and Trypsin (10,350 BAFE units/mg in 50 mM borate buffer, pH 8.5; Thermo Scientific products, Australia), was tested. The peptoids and melimine were incubated with each protease at the ratio (w/w) of 1:100 in PBS (pH 7.4) for 24 h at 37 °C. After incubation, the peptoid/melimine + protease solutions were tested for their activity against P. aeruginosa 216 which was grown overnight in TSB at 37 °C. Bacterial cells were washed three times in PBS and then resuspended in MHB OD660nm of 0.1 (equal to 1x10^8 CFU mL^−1. The bacterial suspension was then diluted in MHB to a final working concentration of 5x10^6 cells mL^−1. The diluted bacterial suspension was subsequently added to the wells containing the peptoids/melimine + protease solution and incubated for 24 h at 37 °C. Peptoids/melimine solutions alone (no proteases) were used as a positive control, while protease solutions without the peptoids/melimine were used as a negative control. Post incubation, to inhibit the activity of the proteases, the bacterial suspensions were heated at 55 °C for 10 min in a water bath. After the heating step, the absorbance of the suspensions was measured at OD660nm.

Proteinase K = Proteinase K (Parengyodontium album, UniProt P06873)
Protocol: as §2

Trypsin = molecular target: T1, Trypsin (Bos taurus, UniProt P00760)
T1 sequence (P00760 24-246): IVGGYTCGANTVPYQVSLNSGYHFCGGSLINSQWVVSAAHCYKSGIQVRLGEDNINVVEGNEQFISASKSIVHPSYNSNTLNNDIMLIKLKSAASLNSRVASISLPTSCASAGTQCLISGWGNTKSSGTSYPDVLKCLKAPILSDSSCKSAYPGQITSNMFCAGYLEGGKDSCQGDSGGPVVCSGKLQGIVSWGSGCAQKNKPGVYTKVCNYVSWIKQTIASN
Protocol: as §2

[1] = system: human corneal epithelial cells; assay: Cytotoxicity (MTT) to corneal epithelial cells; type: cell-based
Protocol: Cytotoxicity to corneal epithelial cells was assessed for peptoids TM1, TM5 and TM9 using previously published methods and FDA guidelines. These peptides represent structurally diverse types (Table 2) and had different abilities to cause hemolysis of red blood cells (Fig. 1 and Table 3). Corneal cells were seeded on 96 well plate (GreinerBio One, Frickenhauser, Germany) incubated in 5 % CO2 at 37°C and grown to 80 % confluence in Dulbecco’s modified Eagle’s medium (DMEM) (Sigma-Aldrich, Irvine, UK). They were then exposed to twofold dilutions of each peptoid at concentrations ranging from 500 to 1.95 μg mL^−1 for 24 h at 37°C. An MTT (3-(4,5-dimethylthiazol-2yl)-2,5-diphenyltetrazolium bromide; Sigma-Aldrich) working solution of 0.5 mg mL^−1 was dissolved in DMEM, 100–200 μL was dispensed into each well and incubated for 4 h at 37°C. Following incubation, MTT was replaced by dimethyl sulfoxide (DMSO, Sigma Aldrich) to dissolve the formazan crystals formed by viable cells. Absorbance of this solution was measured at OD570nm. The absorbance is directly proportional to the number of viable cells. The normalized absorbance was calculated to determine number of viable cells using the following formula: %Cytotoxicity=(Absorbance of experiment well)−mean(absorbance of control well)/mean(Absorbance of positive control well)⋆100
Data are also presented as the concentration of peptoids that caused 10 % or 50 % cytotoxicity to human corneal epithelial cells.
as §1

S. aureus strains = type: cell-based, Staphylococcus aureus; conditions: summary over five S. aureus strains in text
Description: (§3) The S. pneumoniae strains used were SP04, SP06 and SP07 [46] and Streptococcus gallolyticus SV06 (all isolated from eyes of contact lens wearers during adverse events); P. aeruginosa PAO1 (which was originally isolated from a wound, and is an invasive strain containing the gene exoS) as well as isolates from microbial keratitis, PA 235 (invasive strain containing exoS), PA216 (a cytotoxic strain containing exoU), PA219 (cytotoxic strain containing exoU), PA 233 (cytotoxic strain containing exoU), with various susceptibilities to antibiotics were also used [14]. C. albicans ATCC 10231, a yeast, isolated from case of a human bronchomycosis, was also evaluated.
(§4) The peptoids’ minimum inhibitory and bactericidal concentrations (MIC and MBC) were determined using micro broth dilution methods as previously described with slight modifications, [26, 39, 49, 50], and without using acetic acid and bovine serum albumin [39]. Briefly, bacteria or yeast were suspended in Muller Hinton broth (MHB, Oxoid, Thermo Fisher Scientific, Thebarton, SA, Australia) at 0.1 OD660nm, which was equivalent to 1x10^8 colony forming units (CFU) mL^−1. This suspension was further diluted to achieve 5x10^6 CFU mL^−1. […] Post incubation, the number of CFUs on the agar plates was counted.

streptococci = assay: MIC micro broth dilution, summary over streptococci; type: cell-based
Description: as §3, §4

[2] = incubated with protease at ratio (w/w) 1:100 in PBS pH 7.4, 24 h 37 °C, then P aeruginosa 216 in MHB 24 h 37 °C, OD660nm

Sequence of Proteinase K (P06873 106-384): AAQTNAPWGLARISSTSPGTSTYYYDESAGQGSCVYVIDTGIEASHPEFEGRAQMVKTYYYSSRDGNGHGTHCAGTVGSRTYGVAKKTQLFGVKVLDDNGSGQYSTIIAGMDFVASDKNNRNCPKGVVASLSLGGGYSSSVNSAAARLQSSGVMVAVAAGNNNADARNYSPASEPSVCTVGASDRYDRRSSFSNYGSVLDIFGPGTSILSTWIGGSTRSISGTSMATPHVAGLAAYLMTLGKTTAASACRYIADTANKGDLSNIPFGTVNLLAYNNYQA
Description for all strains: as §3, §4

SMILES | Geometric mean of MIC (tested bacteria) | MIC, No protease (P aeruginosa 216; P aeruginosa 216 in MHB, 24 h 37 °C, OD660nm, compound alone) | MIC after Proteinase K (Proteinase K; [2]) | MIC after Trypsin (Trypsin; [2]) | MIC, No protease (P aeruginosa 216; 216, 24 h) | MIC after Proteinase K (Proteinase K; pH 7.4) | MIC after Trypsin (Trypsin; pH 7.4) | MICs against all strains (all strains) [µM] | HCE CC10 ([1]; concentration causing 10 % cytotoxicity to human corneal epithelial cells, MTT, 24 h 37°C) [µM] | HCE CC50 ([1]; concentration causing 50 % cytotoxicity to human corneal epithelial cells, MTT, 24 h 37°C) [µM] | cytotoxicity to human corneal epithelial cells relative to MIC ([1]; result in words) | SR HCE (ratio CC10 to geometric mean MIC) ([1]; selectivity ratio) | TI HCE (ratio CC50 to geometric mean MIC) ([1]; therapeutic index) | MIC among S. aureus (S. aureus strains) [µM] | MIC against other streptococci (streptococci) [µM]
CCCCCCCCCCNCC(=O)N(CCCCN)CC(=O)N(CC(=O)N(CC(=O)N(CCCCN)CC(=O)N(CC(=O)N(CC(=O)N(CCCCN)CC(N)=O)[C@@H](C)c1ccccc1)[C@@H](C)c1ccccc1)[C@@H](C)c1ccccc1)[C@@H](C)c1ccccc1 [TM18] (H-[NDecylGly][Nlys][Nspe][Nspe][Nlys][Nspe][Nspe][Nlys]-NH2) | 5 µM | 15 (12) μg mL^−1 | 15 (12) μg mL^−1 | 15 (12) μg mL^−1 | – | – | – | – | – | – | – | – | – | – | –
C[C@@H](c1ccc(Br)cc1)N(CC(=O)N(CCCCN)CC(=O)N(CC(=O)N(CC(=O)N(CCCCN)CC(N)=O)[C@@H](C)c1ccc(Br)cc1)[C@@H](C)c1ccc(Br)cc1)C(=O)CN(C(=O)CNCCCCN)[C@@H](C)c1ccc(Br)cc1 [TM14] (H-[Nlys][Nspe(4-Br)][Nspe(4-Br)][Nlys][Nspe(4-Br)][Nspe(4-Br)][Nlys]-NH2) | 4.0 µM and 4 µM | – | – | – | 7.8 (5.8) μg mL^−1 | 7.8 (5.8) μg mL^−1 | 7.8 (5.8) μg mL^−1 | ≤ 12.7 | – | – | – | – | – | – | –
C[C@@H](c1ccccc1)N(CC(N)=O)C(=O)CN(C(=O)CN(CCCCN)C(=O)CN(C(=O)CN(C(=O)CN(CCCCN)C(=O)CN(C(=O)CN(C(=O)CN(CCCCN)C(=O)CN(C(=O)CN(C(=O)CNCCCCN)[C@@H](C)c1ccccc1)[C@@H](C)c1ccccc1)[C@@H](C)c1ccccc1)[C@@H](C)c1ccccc1)[C@@H](C)c1ccccc1)[C@@H](C)c1ccccc1)[C@@H](C)c1ccccc1 [TM1] (H-[Nlys][Nspe][Nspe][Nlys][Nspe][Nspe][Nlys][Nspe][Nspe][Nlys][Nspe][Nspe]-NH2) | – | – | – | – | – | – | – | – | 1 | 10 | cytotoxic to human corneal epithelial cells at or below their MICs | 0.3 | 3 | ≤ 9.4 | ≤ 8.6
